Patent publication US20050042701A1, “Anti-petasin antibodies, methods for the production thereof and their use” (priority 1998, published 2005)
Where two headings read alike, the source gives them in different places.

Assay: 1st phase clinical test: pharmacokinetics of petasin in serum after single oral administration of tablets containing butterbur extract (open crossover; enzyme immunoassay)
Assay type: in vivo, human (clinically healthy men)
Details: for AUCRest: single oral, mean ± SD; for Petasin serum concentration Mean / concentration at 0 h: 0 h p.a.; for concentration at 0 h / concentration at 0.25 h / concentration at 0.5 h / concentration at 0.75 h / concentration at 1 h / concentration at 1.17 h / concentration at 1.5 h / concentration at 1.833 h / concentration at 2.167 h / concentration at 2.5 h / concentration at 3 h / concentration at 4 h / concentration at 5 h / concentration at 6 h / concentration at 8 h / concentration at 12 h / concentration at 24 h: male, human, serum, oral; for concentration at 0.25 h: 0.25 h p.a.; for concentration at 0.5 h: 0.5 h p.a.; for concentration at 0.75 h: 0.75 h p.a.; for concentration at 1 h: 1 h p.a.; for concentration at 1.17 h: 1.17 h p.a.; for concentration at 1.5 h: 1.5 h p.a.; for concentration at 1.833 h: 1.833 h p.a.; for concentration at 2.167 h: 2.167 h p.a.; for concentration at 2.5 h: 2.5 h p.a.; for concentration at 4 h: 4 h p.a.; for concentration at 5 h: 5 h p.a.; for concentration at 6 h: 6 h p.a.; for concentration at 8 h: 8 h p.a.; for concentration at 12 h: 12 h p.a.; for concentration at 24 h: 24 h p.a.
Description: Petasin ovalbumin is adsorptively bound to polystyrene microtitration plates in a concentration of […] in 0.1 M carbonate buffer, pH=9.5, (100 μl/well) for 16 hours at 4° C. and thereupon sucked off. After washing it two times with 300 μl/well washing buffer (PBS, 0.1% Tween 20) it is blocked for 2 hours at room temperature with 150 μl/well blocking solution (0.6% gelatine, 0.02% […] in PBS) and subsequently washed three times with washing buffer.
50 μl of the serum sample to be tested or the respective standard (1:4 dilution in a sample buffer (PBS, 1% BSA, 0.1% Tween 20, 0.01% thiomersal) and 50 μL of an optimized anti-serum dilution in a sample buffer are simultaneously incubated with shaking for 1 hour at room temperature. Subsequently, the microtitration plate is washed three times with 300 μl/well of washing buffer and incubated for 30 min. at room temperature with 100 μl of anti-rabbit immunoglobulin peroxidase conjugate, diluted in sample buffer, and once more washed as above. Thereupon, it is incubated for 10 min. with 100 μl of a substrate solution ready for use (3.3′, 5.5′-tetramethyl benzidine) per well and the reaction is stopped by adding 100 μl/well of 0.5 M sulfuric acid. The evaluation is carried out at 450 nm in a microtitration plate reader.
In a 1st phase of the clinical test for determining the pharmacokinetic parameters of tablets containing butterbur extract was a single oral administrations of 2 or 4 tablets to 24 clinically healthy men at the age between 18 and 40 years.
The open, crossover test was chosen as method, single administration of each dose in a randomized order with an interval of at least 7 days between the administrations.
Model-independent pharmacokinetic parameters for petasin Statistical methods:
ANOVA, ANOVAlog, Wilcoxon-Mann-Whitney test, Wilcoxon-sign order test

[1] = 2 tablets, after administering 2 tablets, read-out: Petasin serum concentration Max.
[2] = 2 tablets, after administering 2 tablets, read-out: Petasin serum concentration Mean
[3] = 2 tablets, after administering 2 tablets, read-out: Petasin serum concentration Min.
[4] = 2 tablets, after administering 2 tablets, read-out: Petasin serum concentration Median

AUCRest (2 tablets): 18.3 ± 7.9%
Dose dependence of Cmax and AUC (2 versus 4 tablets): nearly proportional to the dose
Medium maximum petasin concentration (Cmax) after double the dose (4 tablets versus 2 tablets): nearly doubled
Medium time of reaching the maximum serum level (tmax) after double the dose (4 tablets versus 2 tablets): remains constant
AUCRest (4 tablets): 10.8 ± 4.9%
Petasin serum concentration Mean (after administering 4 tablets): <1 ng/mL
Petasin serum concentration Mean (after administering 4 tablets, listed as Petasin): 0.0 ng/mL
Petasin serum concentration Max. (after administering 4 tablets, 3 h p.a.): 49.0 ng/mL
concentration at 0 h [1]: 0 ng/mL
concentration at 0 h [2]: 0 ng/mL
concentration at 0 h [3]: 0 ng/mL
concentration at 0.25 h [1]: 5.5 ng/mL
concentration at 0.25 h [2]: 2.8 ng/mL
concentration at 0.25 h [4]: 2.2 ng/mL
concentration at 0.25 h [3]: 1.1 ng/mL
concentration at 0.5 h [1]: 23.3 ng/mL
concentration at 0.5 h [2]: 7.6 ng/mL
concentration at 0.5 h [4]: 5.9 ng/mL
concentration at 0.5 h [3]: 1.5 ng/mL
concentration at 0.75 h [1]: 23.8 ng/mL
concentration at 0.75 h [2]: 11.9 ng/mL
concentration at 0.75 h [4]: 11 ng/mL
concentration at 0.75 h [3]: 4 ng/mL
concentration at 1 h [1]: 29.3 ng/mL
concentration at 1 h [2]: 15.6 ng/mL
concentration at 1 h [4]: 14.7 ng/mL
concentration at 1 h [3]: 4 ng/mL
concentration at 1.17 h [1]: 62.9 ng/mL
concentration at 1.17 h [2]: 21 ng/mL
concentration at 1.17 h [4]: 15.3 ng/mL
concentration at 1.17 h [3]: 5.6 ng/mL
concentration at 1.5 h [1]: 47.3 ng/mL
concentration at 1.5 h [2]: 19.3 ng/mL
concentration at 1.5 h [4]: 16.1 ng/mL
concentration at 1.5 h [3]: 5.1 ng/mL
concentration at 1.833 h [1]: 44.3 ng/mL
concentration at 1.833 h [2]: 18.2 ng/mL
concentration at 1.833 h [4]: 14.7 ng/mL
concentration at 1.833 h [3]: 7.8 ng/mL
concentration at 2.167 h [1]: 31.7 ng/mL
concentration at 2.167 h [2]: 16.3 ng/mL
concentration at 2.167 h [4]: 14.5 ng/mL
concentration at 2.167 h [3]: 7.3 ng/mL
concentration at 2.5 h [1]: 26.6 ng/mL
concentration at 2.5 h [2]: 13.6 ng/mL
concentration at 2.5 h [4]: 10.2 ng/mL
concentration at 2.5 h [3]: 5.9 ng/mL
concentration at 3 h (2 tablets, after administering 2 tablets, 3 h p.a., read-out: Petasin serum concentration Max.): 18.3 ng/mL
concentration at 3 h (2 tablets, after administering 2 tablets, 3 h p.a., read-out: Petasin serum concentration Mean): 8.8 ng/mL
concentration at 3 h (2 tablets, after administering 2 tablets, 3 h p.a., read-out: Petasin serum concentration Median): 7.7 ng/mL
concentration at 3 h (2 tablets, after administering 2 tablets, 3 h p.a., read-out: Petasin serum concentration Min.): 3.1 ng/mL
concentration at 4 h [1]: 11.2 ng/mL
concentration at 4 h [2]: 4.5 ng/mL
concentration at 4 h [4]: 5.2 ng/mL
concentration at 4 h [3]: 1.7 ng/mL
concentration at 5 h [1]: 8.8 ng/mL
concentration at 5 h [2]: 4.1 ng/mL
concentration at 5 h [4]: 3.4 ng/mL
concentration at 5 h [3]: 1.5 ng/mL
concentration at 6 h [1]: 8.1 ng/mL
concentration at 6 h [2]: 3.2 ng/mL
concentration at 6 h [4]: 3.1 ng/mL
concentration at 6 h [3]: 1.2 ng/mL
concentration at 8 h [1]: 4.2 ng/mL
concentration at 8 h [2]: 1.9 ng/mL
concentration at 8 h [4]: 1.6 ng/mL
concentration at 8 h [3]: 1 ng/mL
concentration at 12 h [1]: 2.9 ng/mL
concentration at 12 h [2]: 1.6 ng/mL
concentration at 12 h [4]: 1.4 ng/mL
concentration at 12 h [3]: 1.1 ng/mL
concentration at 24 h [1]: 2.3 ng/mL
concentration at 24 h [2]: 1.5 ng/mL
concentration at 24 h [4]: 1.3 ng/mL
concentration at 24 h [3]: 1.1 ng/mL
concentration at 0 h (4 tablets, after administering 4 tablets, read-out: Petasin serum concentration Max.): 0 ng/mL
concentration at 0 h (4 tablets, after administering 4 tablets, read-out: Petasin serum concentration Median): < 1 ng/mL
SMILES: C=C(C)C1CC2(C)C(=CC1=O)CCC(OC(=O)/C(C)=C\C)C2C (centres unmarked) [petasin]
